Measurements: patent EP4793271A1, “NEUROPROTECTIVE AGENT” (National Center of Neurology and Psychiatry, priority 2023, dated 2025)
Where two headings read alike, the source gives them in different places.

What was measured:
[1] = target: T1, nicotinamide phosphoribosyl transferase (NAMPT) (Homo sapiens, UniProt P43490); assay: NAMPT activity measurement (NMN fluorescence detection); assay type: biochemical; settings: NAMPT recombinant protein, 10 µM Nam; for IC50: read-out: Evaluation on NAMPT inhibitory
T1 construct: purchased Medical & Biological Laboratories Co., Ltd. (MBL)
Summary of the method: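 Recombinant NAMPT reacted with 10 µM Nam, 0.5 µM PRPP, 2 µM ATP in Tris pH 7.4 buffer with MgCl2, DTT, BSA; product NMN quantified by fluorescence (ex 421/em 480 nm) after derivatization with 2-acetylbenzofuran. Compounds at 3 nM–10 µM; control-normalized signal used for IC50.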

hSARM1 = target: T2, hSARM1 (Homo sapiens, UniProt Q6SZW1); assay: Human SARM1 activity measurement in HEK293 cells transiently transfected with ΔN-hSARM1 (PC6 fluorescent probe); assay type: cell-based; parameters: expressed in transfected cells; host or cells: HEK293, pcDNA3 expression vector
T2 sequence (Q6SZW1 28-724): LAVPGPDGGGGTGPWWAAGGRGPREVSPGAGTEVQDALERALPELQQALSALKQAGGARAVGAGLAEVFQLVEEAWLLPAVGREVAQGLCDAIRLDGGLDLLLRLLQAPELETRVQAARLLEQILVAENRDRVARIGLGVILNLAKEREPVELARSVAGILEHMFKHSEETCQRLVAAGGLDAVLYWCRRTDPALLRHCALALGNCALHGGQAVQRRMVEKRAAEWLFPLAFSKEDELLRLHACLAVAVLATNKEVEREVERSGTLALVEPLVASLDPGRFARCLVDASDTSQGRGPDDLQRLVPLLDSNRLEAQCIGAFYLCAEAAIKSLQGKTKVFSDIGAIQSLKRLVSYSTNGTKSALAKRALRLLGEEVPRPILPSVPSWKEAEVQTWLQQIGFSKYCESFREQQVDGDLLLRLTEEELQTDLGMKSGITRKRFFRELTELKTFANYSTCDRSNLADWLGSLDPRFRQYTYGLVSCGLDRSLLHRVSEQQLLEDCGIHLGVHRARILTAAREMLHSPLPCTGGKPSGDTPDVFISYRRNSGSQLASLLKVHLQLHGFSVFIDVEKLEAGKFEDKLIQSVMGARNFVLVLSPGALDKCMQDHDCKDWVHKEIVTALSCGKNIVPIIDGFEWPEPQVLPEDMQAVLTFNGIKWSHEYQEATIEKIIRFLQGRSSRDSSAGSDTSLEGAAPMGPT
Summary of the method: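 HEK293 cells in nicotinamide-free DMEM with 5 μM nicotinamide, transiently transfected with mitochondrial-targeting-deleted ΔN-hSARM1; PC6 base-exchange fluorescent probe (50 μM) plus compound (30 μM) added ~8 h post-transfection. Fluorescence (ex 405/em 525 nm) read ~48 h from transfection; inhibition % versus transfected DMSO control, untransfected background subtracted.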

[2] = tested on: primary cultured cells of mouse fetus-derived dorsal root ganglia (DRGs); assay: Suppression of axonal degeneration after axotomy in DRG explant culture; assay type: cell-based; settings: minimum concentration at which axonal degeneration was suppressed (DI 0.3 or less), 24 hours after axotomy; for minimal effective concentration: Mus musculus, read-out: Evaluation on protection against degeneration
Summary of the method: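 Embryonic ICR mouse DRG explants were cultured 7–8 days in nicotinamide-free neuronal medium with NGF, then axotomized by removing the cell bodies. Compound (100 pM–10 µM final, 0.1% DMSO) was added within 30 min, and neurites were imaged 24 h later. The result is the lowest concentration giving degeneration index ≤0.3.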

[3] = inhibition rate, compound 30 µM, PC6 50 µM, HEK293 cells expressing ΔN-hSARM1, approximately 48 hours from transfection, read-out: Evaluation on hSARM1 inhibitory

T1 sequence (P43490 whole entry, species assumed): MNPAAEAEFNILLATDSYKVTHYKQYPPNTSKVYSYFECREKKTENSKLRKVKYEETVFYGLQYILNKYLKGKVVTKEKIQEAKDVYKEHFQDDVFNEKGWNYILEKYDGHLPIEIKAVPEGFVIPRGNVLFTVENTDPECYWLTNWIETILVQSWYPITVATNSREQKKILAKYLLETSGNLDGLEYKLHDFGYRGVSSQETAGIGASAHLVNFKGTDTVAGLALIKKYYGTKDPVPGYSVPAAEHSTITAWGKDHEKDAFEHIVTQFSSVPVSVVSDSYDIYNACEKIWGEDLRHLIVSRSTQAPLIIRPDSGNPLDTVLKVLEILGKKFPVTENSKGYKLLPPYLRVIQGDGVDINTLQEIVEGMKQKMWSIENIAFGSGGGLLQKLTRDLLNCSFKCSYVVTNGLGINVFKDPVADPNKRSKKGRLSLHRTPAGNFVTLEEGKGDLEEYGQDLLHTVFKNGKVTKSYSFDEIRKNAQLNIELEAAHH

Row | Compound | Evaluation on NAMPT inhibitory [1] | inhibition at 30 µM (hSARM1; [3]) [%] | minimal effective concentration [2] [µM] | IC50 [1] [nM] | Evaluation on protection against degeneration [2] | inhibition at 30 µM (hSARM1; HEK293, read-out: Evaluation on hSARM1 inhibitory) [%]
1 | CCC(C)C(=O)Nc1ccc(CNC(=O)c2cccnc2)cn1 (stereo not drawn) [Compound 161] | ○ | > 10 | ≤ 0.01 | – | – | –
2 | Cc1cc(C)cc(C(=O)Nc2ccc(CNC(=O)c3cccnc3)cn2)c1 [Compound 136] | ○ | > 75 | ≤ 0.01 | – | – | –
3 | O=C(Cc1ccc(OCc2ccccc2)cc1)Nc1ccc(CNC(=O)c2cccnc2)cn1 [Compound 177] | – | > 75 | 0.01 to 0.1 | ≥ 100 | – | –
4 | O=C(NCCCC1NC(=O)C(CCCNC(=O)c2cccnc2)NC1=O)c1cccnc1 (stereo not drawn) [compound 103] | ○ | > 10 | 0.01 to 0.1 | – | – | –
5 | O=C(NCc1ccc(NC(=O)c2ccc3ncccc3c2)nc1)c1cccnc1 [Compound 122] | ○ | > 75 | ≤ 0.01 | – | – | –
6 | O=C(/C=C/c1ccc(OC(F)(F)F)cc1)Nc1ccc(CNC(=O)c2cccnc2)cn1 [Compound 168] | ○ | > 50 | ≤ 0.01 | – | – | –
7 | Cc1ccc(/C=C/C(=O)Nc2ccc(CNC(=O)c3cccnc3)cn2)cc1 [Compound 179] | ○ | > 75 | ≤ 0.01 | – | – | –
8 | NCCOCCOCCCCCCCCNC(=O)c1cccnc1 [compound 97] | – | > 75 | ≤ 0.01 | ≥ 100 | – | –
9 | O=C(NCCOCCOc1ccc(CNC(=O)c2ccccc2)cc1)c1cccnc1 [compound 13] | ○ | > 75 | 0.01 to 0.1 | – | – | –
10 | COC(=O)c1ccc(OCCOCCNC(=O)c2cccnc2)cc1 [compound 32] | ○ | > 50 | ≤ 0.01 | – | – | –
11 | O=C(Cc1ccc(F)cc1)Nc1ccc(CNC(=O)c2cccnc2)cn1 [Compound 144] | – | > 75 | ≤ 0.01 | ≥ 100 | – | –
12 | O=C(COc1ccc(C(F)(F)F)cc1)Nc1ccc(CNC(=O)c2cccnc2)cn1 [Compound 176] | – | > 75 | 0.01 to 0.1 | ≥ 100 | – | –
13 | O=C(NCCCCCCCCOCCO)c1cccnc1 [compound 4] | ○ | > 75 | – | – | A (A ≤ 0.01 µM) | –
14 | CC(C)(C)OC(=O)NCCOCCOCCNC(=O)c1cccnc1 [compound 71] | ○ | > 50 | – | – | A (A ≤ 0.01 µM) | –
15 | Cc1ccc(C(=O)Nc2ccc(CNC(=O)c3cccnc3)cn2)cc1C [Compound 134] | ○ | > 75 | ≤ 0.01 | – | – | –
16 | COc1ccc(/C=C/C(=O)Nc2ccc(CNC(=O)c3cccnc3)cn2)cc1 [Compound 180] | – | > 75 | ≤ 0.01 | ≥ 100 | – | –
17 | O=C(NCc1ccc(NC(=O)c2ccccc2)nc1)c1cnc2ccccc2c1 [Compound 140] | ○ | > 10 | 0.1 to 1 | – | – | –
18 | CCc1ccc(C(=O)Nc2ccc(CNC(=O)c3cccnc3)cn2)cc1 [Compound 131] | ○ | > 75 | ≤ 0.01 | – | – | –
19 | O=C(/C=C/c1ccccc1)Nc1ccc(CNC(=O)c2cccnc2)cn1 [compound 74] | ○ | > 75 | 0.01 to 0.1 | – | – | –
20 | C#CCOCCOCCNC(=O)c1cccnc1 [compound 11] | ○ | > 10 | 0.01 to 0.1 | – | – | –
21 | O=C(Cc1ccc2ccccc2c1)Nc1ccc(CNC(=O)c2cccnc2)cn1 [Compound 123] | – | > 75 | ≤ 0.01 | ≥ 100 | – | –

Row | Compound | Evaluation on NAMPT inhibitory [1] | inhibition at 30 µM (hSARM1; [3]) [%] | minimal effective concentration [2] [µM] | IC50 [1] [nM] | Evaluation on protection against degeneration [2] | inhibition at 30 µM (hSARM1; HEK293, read-out: Evaluation on hSARM1 inhibitory) [%]
22 | COC(=O)c1ccc(OCCOCCNC(=O)/C=C/c2cccnc2)cc1 [compound 31] | – | > 75 | ≤ 0.01 | ≥ 100 | – | –
23 | NCCCOCCOCCCNC(=O)c1cccnc1 [compound 106] | ○ | > 25 | ≤ 0.01 | – | – | –
24 | O=C(NCc1ccc(NC(=O)c2cccc(F)c2)nc1)c1cccnc1 [Compound 116] | ○ | > 75 | ≤ 0.01 | – | – | –
25 | O=C(NCc1ccc(NC(=O)c2cccnc2)nc1)c1cccnc1 [Compound 120] | ○ | > 25 | ≤ 0.01 | – | – | –
26 | CC(C)C(=O)Nc1ccc(CNC(=O)c2cccnc2)cn1 [compound 72] | ○ | > 50 | 0.01 to 0.1 | – | – | –
27 | O=C(NCCCCC1NC(=O)C(CCCCNC(=O)c2cccnc2)NC1=O)c1cccnc1 (stereo not drawn) [compound 104] | ○ | > 10 | 0.1 to 1 | – | – | –
28 | COc1cccc(OCCCNC(=O)/C=C/c2cccnc2)c1 [compound 18] | – | > 75 | ≤ 0.01 | ≥ 100 | – | –
29 | O=C(NCCOCCOc1cccc(O)c1)c1cccnc1 [compound 27] | – | > 75 | 0.01 to 0.1 | ≥ 100 | – | –
30 | N#Cc1ccc(CCC(=O)Nc2ccc(CNC(=O)c3cccnc3)cn2)cc1 [Compound 173] | ○ | > 75 | 0.01 to 0.1 | – | – | –
31 | O=C(CNC(=O)c1cccnc1)NCCNC(=O)CNC(=O)c1cccnc1 [compound 40] | ○ | > 10 | 0.1 to 1 | – | – | –
32 | Cc1ccc(C(=O)Nc2ccc(CNC(=O)c3cccnc3)cn2)c(C)c1 [Compound 135] | ○ | – | – | – | A (A ≤ 0.01 µM) | > 75
33 | O=C(CCc1ccccc1)Nc1ccc(CNC(=O)c2cccnc2)cn1 [Compound 115] | ○ | > 75 | ≤ 0.01 | – | – | –
34 | O=C(CNC(=O)c1cccnc1)NCCCCCCNC(=O)CNC(=O)c1cccnc1 [compound 41] | ○ | > 75 | ≤ 0.01 | – | – | –
35 | O=C(NCc1cccc(CNC(=O)c2cccnc2)n1)c1ccccc1 [Compound 149] | ○ | > 25 | 0.1 to 1 | – | – | –
36 | CCC(C)(C)C(=O)Nc1ccc(CNC(=O)c2cccnc2)cn1 [compound 88] | ○ | > 50 | 0.01 to 0.1 | – | – | –
37 | O=C(/C=C/c1cccnc1)Nc1ccc(CNC(=O)c2cccnc2)cn1 [compound 75] | – | > 75 | ≤ 0.01 | ≥ 100 | – | –
38 | O=C(NCc1ccc(NC(=O)c2cccnc2)c(Cl)c1)c1cccnc1 [Compound 112] | ○ | > 10 | – | – | B (0.01 µM < B ≤ 0.1 µM) | –
39 | CCCCC(=O)N(C(=O)CCCC)c1ccc(CNC(=O)c2cccnc2)cn1 [Compound 171] | ○ | > 50 | ≤ 0.01 | – | – | –
40 | O=C(NCc1ccc(NC(=O)C2CCOCC2)nc1)c1cccnc1 [Compound 114] | ○ | > 75 | ≤ 0.01 | – | – | –
41 | Cc1ccc(CC(=O)Nc2ccc(CNC(=O)c3cccnc3)cn2)cc1 [Compound 143] | – | > 75 | ≤ 0.01 | ≥ 100 | – | –
